Data reported in patent publication US12357657B2, “Silver-/gold-compounds and methods thereof” (priority 2019, dated 2025).

Columns and labels:
[1] = target: MCR-1-S (Escherichia coli, UniProt A0A0R6L508); details: ICP-MS
Protocol: The equilibrium dialysis was used to monitor the exact binding process. Apo-MCR-1-S was put in the inner side of dialysis membrane and outer side was supplemented with Au^+, Ag^+ or Zn^2+ at different molar ratios. Zn^2+ displacement analysis was performed by adding equivalents of Au^+ and Ag^+ into outer side of the membrane.

[2] = tested on: MCR-1-producing E. coli; assay: Mutant prevention concentration (MPC) test; format: cell-based; details: for mutant colonies: colistin alone at 16×MIC, or colistin with 30 μg mL^−1 of the compound; for MPI of colistin (MPC/MIC): in presence of 30 μg mL^−1 of the compound
Excerpt: Given the very notion of MIC, all susceptible bacterial cells are suppressed or killed by a dose above it. […] The dose of compounds at MIC adversely amplifies the population of those less-susceptible mutants. Thus, mutant prevention concentration (MPC), defined as a compound concentration that suppresses the growth of first-step resistant mutant in large quantity of susceptible bacterial population, together with mutant prevention index (MPI=MPC/MIC), is introduced to estimate the mutant prevention ability of exemplary compound combination. […] All the plates were incubated at 37° C. Upon incubation for 48 hours, up to 4 colonies were picked and re-cultured from any plates with observable colonies, followed by the measurement of their MIC values. […] The concentration that restricted the growth of mutant colonies was determined as MPC.

[3] = target: T1, full length MCR-1 (Escherichia coli, UniProt A0A0R6L508); format: biochemical; details: MCR-1 pre-treated with 10 molar equivalents, 25° C. overnight
T1 construct: The full length MCR-1 was pre-treated with or without 10 molar equivalents
T1 sequence (A0A0R6L508 whole entry): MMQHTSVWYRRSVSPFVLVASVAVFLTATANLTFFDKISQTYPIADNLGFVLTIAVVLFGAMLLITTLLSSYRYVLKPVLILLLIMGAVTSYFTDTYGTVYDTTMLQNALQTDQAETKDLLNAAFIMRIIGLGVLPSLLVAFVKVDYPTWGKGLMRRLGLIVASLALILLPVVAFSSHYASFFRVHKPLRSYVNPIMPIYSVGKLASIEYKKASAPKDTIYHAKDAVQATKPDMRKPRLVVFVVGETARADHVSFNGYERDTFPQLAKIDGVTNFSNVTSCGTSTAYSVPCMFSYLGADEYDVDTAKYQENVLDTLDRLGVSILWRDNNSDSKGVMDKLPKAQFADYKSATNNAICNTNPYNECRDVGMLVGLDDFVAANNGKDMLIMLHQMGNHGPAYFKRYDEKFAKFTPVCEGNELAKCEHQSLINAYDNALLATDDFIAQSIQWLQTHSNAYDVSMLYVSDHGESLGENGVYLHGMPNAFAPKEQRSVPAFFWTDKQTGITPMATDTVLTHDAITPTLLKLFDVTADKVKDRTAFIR
Protocol: TLC plate was used to separate NBD-glycerol from the MCR-1 reaction mixture in a mobile phase [ethyl acetate:methanol:water, 7:2:1 (vol/vol)]. The reaction product was analyzed by exposing the TLC plate to UV light (455-485 nm) and visualizing the fluorescent signals with a gel imaging system. […] Cellular Thermal Shift Assay

[4] = target: apo-MCR-1-S (Escherichia coli, UniProt A0A0R6L508); assay: biochemical
Sequence of apo-MCR-1-S (A0A0R6L508 200-541): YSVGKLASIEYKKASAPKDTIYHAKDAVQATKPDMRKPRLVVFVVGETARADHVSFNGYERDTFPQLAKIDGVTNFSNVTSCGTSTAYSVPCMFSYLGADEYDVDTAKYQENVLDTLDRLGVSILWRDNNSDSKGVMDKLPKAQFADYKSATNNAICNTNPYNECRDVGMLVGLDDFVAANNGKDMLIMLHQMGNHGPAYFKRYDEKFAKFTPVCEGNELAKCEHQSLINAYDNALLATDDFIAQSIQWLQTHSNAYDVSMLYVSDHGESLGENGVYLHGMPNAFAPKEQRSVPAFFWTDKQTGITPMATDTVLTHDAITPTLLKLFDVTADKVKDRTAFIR
Protocol: The apo-MCR-1-S without any tag was diluted into proper concentration for ITC assay. […] The stoichiometry of metal binding and binding affinities were obtained by fitting the data with proper equations and these assays were performed in triplicate.

[5] = tested on: K. pneumoniae 9607 (MCR-1+); assay: Murine infection model, bacterial loads in liver and spleen; format: in vivo, mice; details: monotherapy, single i.p. dose 1 hr post-infection, 48 hrs; colistin 2 mg kg^−1, auranofin 0.5 mg kg^−1, AgNO3 1.5 mg kg^−1
Protocol: For local infection experiment, an overnight culture of K. pneumoniae 9607 (MCR-1^+) was performed 1:250 dilution in LB broth and re-grew to about OD600 0.5 at 37° C., 250 rpm. Bacterial pellets were collected and washed by PBS buffer three times for further use. Mice were infected intraperitoneally (i.p.) with a dose of 2×10^6 CFU of bacteria in PBS. […] All the mice were scarified at 48 hrs following systemic infection, and bacterial loads in livers and spleens were examined by agar plating. […] Body weights and mice survival were monitored till endpoint of the experiment.

[6] = target: Zn(II)-MCR-1-S (Escherichia coli, UniProt A0A0R6L508); details: PAR assay
Sequence of Zn(II)-MCR-1-S (A0A0R6L508 200-541): as above
Protocol: UV-visible spectra were collected by Varian Cary 50 spectrophotometer at a rate of 360 nm/min by using the 1 cm^−1 quartz cuvette. 4-(2-pyridylazo) resorcinol (PAR), a Zn(II) chelator, can strongly chelate free Zn^2+ to form Zn(PAR)2 complex, leading to an obvious migration of maximum absorbance peak from ca. 420 nm to ca. 500 nm. Herein, we incubated apo-MCR-1-S with 10 folds Zn^2+ in dialysis buffer (20 mM HEPES, pH=7.4, 50 mM NH4NO3). After 12 hour incubation, Zn(II)-MCR-1-S was separated into aliquots and then mixed with Ag(I), Au(I) or even their compounds at different molecular ratios. Dialysis buffer instead of these metal compounds was added into Zn(II)-MCR-1-S solution as negative controls. For positive control, 10-folds of Zn(II) were mixed with apo-MCR-1-S. By comparing the peak intensities among different groups, the amounts of released Zn(II) could be calculated. UV-visible spectra were recorded in a range of 220-600 nm at least 30 min later after incubation.

[7] = tested on: E. coli CKE; assay: Murine systemic infection model, survival assay; format: in vivo, mice; details: for mice rescued from death: combination with colistin 1 mg kg^−1, single i.p. dose 0.5 hr post infection; for protection of mice from death: mono-therapy, AgNO3 0.75 mg kg^−1 or auranofin 0.25 mg kg^−1 i.p., within 72 hours
[8] = tested on: MCR-1-negative E. coli; format: cell-based; details: MCR-1-negative E. coli strain
Protocol: (§1) MIC values of either antibiotics or Bi(III) compounds were determined firstly by standard broth micro-dilution method (Clinical and Laboratory Standards Institute (CLSI) M100-S20, 2010). Briefly, bacteria cells were cultured in LB broth overnight at 37° C. at 250 rpm and the optical density was measured at 600 nm (OD600) using a microtiter plate reader. The bacterial density was adjusted to about 1×10^6 CFU mL^−1 and checked by CFU counting on agar plates afterwards. Tested compounds were added triplicately into individual wells of flat-bottomed 96-well plates and performed two-fold serial dilution, followed by addition of prepared bacterial inoculum. The plate was then incubated at 37° C. overnight. Lanes with no antibiotics or bismuth compounds served as positive controls and lanes with no bacteria added served as negative controls. The MIC was determined as the lowest concentration of compounds that could inhibit the growth of microorganism by both visual reading and OD600 measurement.
(§2) Other procedures and the check of MIC were kept strictly the same. […] Synergism was defined as FICI≤0.5, indifference was defined as FICI>0.5 and <4, and antagonism was defined as FICI≥4. All of the determinations were performed at least in triplicate on different days.

[9] = tested on: MCR-producing E. coli; assay: In vitro serial passage resistance assay; format: cell-based; details: colistin combined with the compound
Protocol: The in vitro passage assay was also conducted to evaluate the antimicrobial durability of the combination. In a typical experiment, an overnight culture of MCR-producing E. coli was diluted to 10^7 CFU mL^−1 in LB broth. […] All the plates were incubated at 37° C. and the growth of cultures was checked at 24 h intervals. Cultures from the second highest concentrations that allowed growth were performed 1:1000 dilution into fresh medium supplemented with the same concentrations of drugs. For colistin, 1-fold of MIC was set as 4 μg mL^−1. This in vitro passage was repeated for 20 days. MIC of MER was determined every four passages.

[10] = tested on: S. flexneri (MCR-1+); format: cell-based; details: MCR-1 positive S. flexneri; AgNO3 10 μM, auranofin 3 μM, Au(PEt3)Cl 3 μM; untreated 4.1, MCR-1 negative 6.1
Protocol: Membrane potential assay was carried out based on a modified method according to manufacturer's instructions. […] The bacterial pellets were then resuspended in PBS supplemented with DiOC2 (30 μM) and stained at 37° C. for 30 mins. Stained bacteria were then assayed in a flow cytometer and the signals from FITC-A (488 nm, green gate) and PI-A (633 nm, red gate) were collected and then analyzed. S. flexneri without treatment served as the control.

[11] = tested on: MCR-producing E. coli; format: cell-based
Protocol: as §1, §2

[12] = target: T2, MCR-1 (Escherichia coli, UniProt A0A0R6L508); format: cell-based, E. coli BL21(DE3); details: overnight exposure, in cellulo
T2 construct: solvable truncated MCR-1 fragment (200-541 aa) but without any tag; expressed in transfected cells; host or cells: E. coli BL21(DE3)
T2 sequence (A0A0R6L508 200-541): as above
Protocol: Considering that MCR-1 is a transmembrane protein, we constructed a plasmid with solvable truncated MCR-1 fragment (200-541 aa) but without any tag and then transferred it into E. coli BL21(DE3). The cellular thermal shift assay was performed according to a general standard method. […] The bacterial pellets were harvested and washed with PBS for 3 times. The cell suspensions were aliquoted into PCR tubes and heat treatment was performed at the designated temperature for 3 mins in a 96-well thermal cycler. The tubes were cooled immediately at 25° C., and the heat treatments were repeated for three cycles. For the cell lysis, the samples were frozen-thawed in liquid nitrogen and thermal cycler was set at 25° C. The samples were vortexed gently after each cycle and centrifuged at 20,000×g to obtain the supernatant. All the samples were subjected to SDS-PAGE gel and electrotransferred to a PVDF membrane (Hybond-P, GE Healthcare). A PageRuler Prestained Protein Ladder #26616 (Thermo) was used as a standard marker.

Sequence of MCR-1-S (A0A0R6L508 200-541): as above

[Ag+] [AgNO3, silver nitrate]
replacement of protein bound metal by extraneous Zn(II) [1]: could not be replaced
equivalents of metal that replaced about 3 molar equivalents of Zn(II) ([1]; equilibrium dialysis): 16 equivalent
mutant colonies [2]: no mutant colony was observable
MPI of colistin (MPC/MIC) [2]: 0.5
migration of NBD-glycerol (cleavage activity of MCR-1) [3]: none of AgNO3, AuCl or Au(PEt3)Cl treatment group exhibited observable migration
Kd [4]: ~0.2 µM
CFUs in liver and spleen [5]: ~10^5 cfu mL^−1 g^−1
release of Zn(II) from MCR-1-S upon titration [6]: completely released
mice rescued from death [7]: 3 out of 6
protection of mice from death [7]: failed to protect any of the mice from death
inhibition in combination with colistin [8]: no inhibition was observed

[Zn+2] [Zn(Ac)2, zinc(II) acetate]
Kd [4]: ~2.45 µM

CC(=O)OC[C@H]1O[C@@H]([S-])[C@H](OC(C)=O)[C@@H](OC(C)=O)[C@@H]1OC(C)=O.CCP(CC)CC.[Au+] [auranofin]
mutant colonies [2]: no mutant colony was observable
MPI of colistin (MPC/MIC) [2]: 0.5
fold rise of colistin MIC after 16 serial passages [9]: 4 folds
green/red fluorescent ratio after treatment [10]: 6.1
CFUs in liver and spleen [5]: ~10^5 cfu mL^−1 g^−1
mice rescued from death [7]: protect all the infected mice from death
protection of mice from death [7]: failed to protect any of the mice from death
MIC of colistin in combination with the compound ([11]; checkerboard, lowest colistin MIC reached with increasing compound): 0.25 µg/mL
FIC index (FICI) with colistin ([11]; synergism FICI≤0.5): 0.375
inhibition in combination with colistin [8]: no inhibition was observed
decrease of cellular thermal stability of MCR-1, ΔTm [12]: 5.2 °C
